Results published in US20170224679A1, “Use of CXCR2 Antagonists For The Prevention and/or Treatment of Chemotherapy Induced Peripheral Neuropathy (CIPN)” (GlaxoSmithKline Intellectual Property Development Limited, priority 2014, published 2017).

How the values were obtained:
CXCR1 receptor = target: T1, CXCR1 receptor (Homo sapiens, UniProt P25024); test: Receptor binding assay ([125I] IL-8 SPA), CXCR1; set-up: expressed in transfected cells; host or cells: CHO cells (membranes); details: [125I] IL-8 binding, CHO-CXCR1 membranes; read-out: pIC50 against the CXCR1 receptor (converted)
T1 sequence (P25024 1-350): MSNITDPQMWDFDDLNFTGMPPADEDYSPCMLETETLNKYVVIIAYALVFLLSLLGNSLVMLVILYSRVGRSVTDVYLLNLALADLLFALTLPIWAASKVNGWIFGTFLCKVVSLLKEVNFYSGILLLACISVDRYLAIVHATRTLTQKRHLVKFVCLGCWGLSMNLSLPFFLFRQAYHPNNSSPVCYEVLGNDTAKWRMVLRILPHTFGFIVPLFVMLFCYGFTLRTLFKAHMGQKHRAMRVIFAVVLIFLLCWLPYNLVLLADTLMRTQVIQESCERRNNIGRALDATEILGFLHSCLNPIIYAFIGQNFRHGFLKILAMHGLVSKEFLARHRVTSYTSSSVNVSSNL
Description: [^125I] IL-8 (human recombinant, IM249) was obtained from Amersham Corp., Arlington Heights, Ill., with specific activity 2000 Ci/mmol. All other chemicals were of analytical grade. High levels of recombinant human CXCR1 and CXCR2 receptors were individually expressed in Chinese hamster ovary (CHO) cells as described in Holmes, et al., Science, 1991, 253, 1278, incorporated herein to the extent required to perform the present assay. The Chinese hamster ovary membranes were prepared according to Haour, et al., J. Biol. Chem., 249 pp 2195-2205 (1974), incorporated herein to the extent required to perform the present assay, except that the homogenization buffer was changed to 40 mM Tris-HCL pH 7.5 containing 1 mM MgSO4, 0.5 mM EDTA (ethylene-diaminetetra-acetic acid), 1 mM PMSF (α-toluene-sulphonyl fluoride), 2.5 mg/L Leupeptin and 0.1 mg/ml Aprotinin. Membrane protein concentration was determined using Bio-Rad Reagent using bovine serum albumin as a standard. All binding assays were conducted using Scintillation Proximity Assay (SPA assay) using wheatgerm agglutinin beads in a 96-well micro plate (optiplate 96, Packard) format. […] The 96-well plates were incubated on a shaking platform for 1 hour. At the end of the incubation the plates were spun for 5 min at 2000 RPM, and counted in a Top Count counter.

CXCR2 receptor = target: T2, CXCR2 receptor (Homo sapiens, UniProt P25025); test: CXCR2 Tango assay; type: cell-based; set-up: fused on or other part: TEV protease cleavage site and Gal4-VP16 transcription factor fused to the receptor (Invitrogen Tango construct); no part of the key; details: Tango reporter gene, 80 nM hCXCL1; read-out: pIC50 against the CXCR2 receptor (converted)
T2 sequence (P25025 1-360): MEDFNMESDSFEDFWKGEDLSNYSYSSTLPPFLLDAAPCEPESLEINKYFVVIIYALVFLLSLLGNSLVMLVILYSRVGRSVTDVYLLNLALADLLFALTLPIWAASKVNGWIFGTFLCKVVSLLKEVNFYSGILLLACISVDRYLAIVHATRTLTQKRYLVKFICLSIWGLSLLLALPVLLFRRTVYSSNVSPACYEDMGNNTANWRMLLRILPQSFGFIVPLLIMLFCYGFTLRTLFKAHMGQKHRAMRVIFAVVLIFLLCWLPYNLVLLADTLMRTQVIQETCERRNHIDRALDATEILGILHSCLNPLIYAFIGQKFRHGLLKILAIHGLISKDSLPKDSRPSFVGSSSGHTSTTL
Text: The assay measures ligand-induced activation of the receptor CXCR2 in a stable cell line containing the recombinant human CXCR2 linked to a TEV protease site and a Gal4-VP16 transcription factor (Invitrogen). Ligand binding to the receptor results in the recruitment of arrestin proteins (tagged with protease) to the receptor and triggers the release of a tethered transcription factor. The transcription factor enters the nucleus and activates the transcription of the reporter gene. The ability of a compound to inhibit CXCR2 activation is indirectly assessed by measuring the reporter gene activity.
A vial of cryopreserved cells was removed from liquid nitrogen and rapidly thawed in a water bath at 37° C. with gentle agitation. The cell contents were collected and resuspended in Assay Medium at a density of ˜200,000 cells/ml. All test compounds were dissolved in DMSO at a concentration of 10 mM and then were serially diluted to generate a 10-point dose response curve into 384-well assay plate (Greiner 781090) using an Echo (Labcyte) concentration-response program (50 nl/well). The cell-free, un-stimulated and positive controls were loaded with 50 nl/well pure DMSO to ensure that the DMSO concentration was constant across the plate for all assays. Using Multi-drop Combi (Thermo) with standard cassette, 50 μl of Assay Medium was added to cell-free control wells in compound-containing assay plate; 50 μl of the cell suspension without hCXCL1 (a CXCR2 ligand) was added to un-stimulated control wells (10,000 cells per well); and 50 μl of the cell suspension with 80 nM hCXCL1 was added to the rest of wells of the assay plate (10,000 cells per well). The cells were incubated overnight at 37° C./5% CO2·10 μl of 6× substrate mixture (LiveBLAzer™-FRET B/G substrate (CCF4-AM) Cat #K1096 from Invitrogen, Inc.) was added to each well using Multi-drop Combi (Thermo) with small-tube cassette and the plate was incubated at room temperature for 2 h in the dark. The plate was then read on EnVision using one excitation channel (409 nm) and two emission channels (460 nm and 530 nm).
The blue/green emission ratio (460 nm/530 nm) was calculated for each well by dividing the background-subtracted Blue emission values by the background-subtracted Green emission values. The dose response curve was based on sigmoidal dose-response model. All ratio data was normalized based upon the maximum emission ratio of positive control (hCXCL1) and minimum emission ratio of negative control (DMSO) on each plate.

Sprague-Dawley rats = test: CXCR2 antagonist effect on repeat dosing oxaliplatin induced sensory injury rat; details: Veh/Oxa rats, 4 mg/kg i.p. twice per week for 4 weeks, Day 29-31, mean±SEM
Description: Male Sprague-Dawley rats (109-167 g, ˜5weeks old) were housed in cages in groups of three in a controlled environment of constant temperature and moisture (temperature: 25±3° C., light: dark cycle of 12:12 hours) with food (25 g/rat/day of LabDiet 5053) and water available ad libitum.
MC (Sigma Cat #423238) was made up in water at 1% (w/v) (1 g per 100 mL water) and left on a stirrer until completely dissolved. The formulation was prepared every 6-8 days in 400-700 mL each time and stored at 4° C. protected from light. The dosing volume used was 10 mL/kg to give a 20 mg/kg p.o. dose. Vehicle treated animals were dosed b.i.d. with 1% MC w/v at 10 mL/kg p.o.
A fresh solution was prepared before every injection. Control vehicle animals were treated with 5% w/v Gluclose at 5ml/kg. Glucose (Sigma Aldrich Cat #G7021) was made up in milli-Q water at 5% (w/v) (5 g per 100 mL water) and left on a stirrer until completely dissolved.
Body weight tracking: The bodyweights of rats were measured twice a week for 4 weeks on Days 1, 3, 9, 11, 16, 18, 23, and 25. […]
Rats were anesthetized with chloral hydrate (350 mg/kg, 3.5 mL/kg, i.p.). […] The right sciatic nerve was carefully identified and conduction velocity was measured by recording action potentials from an electrode placed between the second and third digits as described by Jamieson et al., Br. J. Cancer, 88(12):1942-7 (2003), and electrically stimulating the nerve (5V, 0.5 s, single-wave pulses) via a platinum wire electrode at the sciatic notch and ankle. The length between the sciatic notch and ankle was measured.
The nerve conduction velocity was calculated as the length between sciatic notch and ankle divided by the difference between the time latencies at the stimulation sites [latency (sciatic notch)−latency (ankle)].
A 1 cm segment of the left sciatic nerve (distal end) was located and carefully dissected out. […] The ratio of inner area over entire area of nerve fibers of sciatic nerves was then calculated as an indicator of thickness of myelin sheath of nerves.

HCT116 cell line = test: Colorectal cancer cell line proliferation assay, HCT116; type: cell-based; details: HCT116, 72 hours
Description: Cell proliferation assay: Cells were seeded in 96-well plates (Costar) at different cell densities: HCT116, 500 cells per well; Caco-2, 1000 cells per well. Total volume of the medium was 90 μl per well. Cells were incubated for 24 hours at 37° C. and 5% CO2 incubator. […] The final concentration of the Compound of Formula (A) was 8.5 μM. […] The cell proliferation rate was measured by adding 100 μl of CellTiter-Glo™ (Promega) according to the manufacturer's instructions. After 10 minutes of incubation, the cell lysates were transferred into OptiPlate-384 well, the luminescence was recorded by BioTek Synergy™ 4 Hybrid Microplate Reader with Gen5 software. All data points were generated in five replicates. Three independent experiments were performed. […] All data were presented as the mean±standard error of the mean determined from three independent experiments.

Row | IC50 (CXCR2 receptor) | SMILES | also measured
1 | 1 nM | CC1=CCC[C@H]1NC(=O)Nc1ccc(Cl)c(S(=O)(=O)[C@H]2C[C@H](N3CCCC3)C2)c1O [Compound of Formula (G), 1-(4-chloro-2-hydroxy-3-((trans-3-(pyrrolidin-1-yl)cyclobutyl)sulfonyl)phenyl)-3-((R)-2-methylcyclopent-2-en-1-yl)urea] | 
2 | 1 nM | CC1=CCC[C@H]1NC(=O)Nc1ccc(Cl)c(S(=O)(=O)[C@H]2C[C@H](N(C)C)C2)c1O [Compound of Formula (H), 1-(4-chloro-3-((trans-3-(dimethylamino)cyclobutyl)sulfonyl)-2-hydroxyphenyl)-3-((R)-2-methylcyclopent-2-en-1-yl)urea] | 
3 | 0.398 nM | CC1=CCC[C@H]1NC(=O)Nc1ccc(Cl)c(S(=O)(=O)C(C)(F)F)c1O [Compound of Formula (I), (R)-1-(4-chloro-3-((1,1-difluoroethyl)sulfonyl)-2-hydroxyphenyl)-3-(2-methylcyclopent-2-en-1-yl)urea] | 

More lines, now with the values behind:

Row | SMILES | IC50 (CXCR2 receptor) | also measured
4 | Cc1c(F)cccc1NC(=O)Nc1ccc(Cl)c(S(=O)(=O)C2CCCNC2)c1O (stereo not shown) [Compound of Formula (B), 1-(4-chloro-2-hydroxy-3-(piperidin-3-ylsulfonyl)phenyl)-3-(3-fluoro-2-methylphenyl)urea] |  | IC50 (CXCR1 receptor): 1000 nM
5 | CC1=CCC[C@H]1NC(=O)Nc1ccc(Cl)c(S(=O)(=O)[C@]2(C)CCOC2)c1O [Compound of Formula (C), 1-(4-chloro-2-hydroxy-3-(((R)-3-methyltetrahydrofuran-3-yl)sulfonyl)phenyl)-3-((R)-2-methylcyclopent-2-en-1-yl)urea] | 1 nM | 
6 | CC1(S(=O)(=O)c2c(Cl)ccc(NC(=O)N[C@@H]3CCC=C3Cl)c2O)CCOCC1 [Compound of Formula (E), (R)-1-(4-chloro-2-hydroxy-3-((4-methyltetrahydro-2H-pyran-4-yl)sulfonyl)phenyl)-3-(2-chlorocyclopent-2-en-1-yl)urea] | 1.58 nM | 
7 | CC1=CCC[C@H]1NC(=O)Nc1ccc(C#N)c(S(=O)(=O)C(C)(C)C)c1O [Compound of Formula (F), (R)-1-(3-(tert-butylsulfonyl)-4-cyano-2-hydroxyphenyl)-3-(2-methylcyclopent-2-en-1-yl)urea] | 0.2 nM | 
8 | O=C1[O][Pt]2([NH][C@@H]3CCCC[C@H]3[NH]2)[O]C1=O [Oxaliplatin, oxaliplatin] |  | sciatic nerve conduction velocity between sciatic notch and ankle (Sprague-Dawley rats): 35.99±0.59 m/s; pIC50 inhibition of cell proliferation (HCT116 cell line; oxaliplatin with vehicle, mean±SEM): 6.049±0.016; pIC50 inhibition of cell proliferation in the presence of Compound of Formula (A) (HCT116 cell line; with Compound of Formula (A) 8.5 μM): 6.05±0.02
